Data from US6458788B1, “4-hydroxycinnoline-3-carboxyamides as antiviral agents” (Pharmacia & Upjohn Company, priority 2000, dated 2002).

What was measured:
HCMV polymerase = target: T1, HCMV polymerase (Human cytomegalovirus, UniProt P08546); experiment: HCMV polymerase scintillation proximity assay (modified version); assay type: biochemical; conditions: at a concentration of 20 μM; read-out: percent inhibition of the viral polymerase, HCMV
T1 construct: made in house; host or cells: recombinant baculovirus-infected SF-9 cells
Protocol: The HCMV polymerase assay is performed using a scintillation proximity assay (SPA) as described in several references, such as N. D. Cook, et al., Pharmaceutical Manufacturing International, pages 49-53 (1992); K. Takeuchi, Laboratory Practice, September issue (1992); U.S. Pat. No. 4,568,649 (1986); which are incorporated by reference herein. Reactions are performed in 96-well plates. The assay is conducted in 100 μl volume with 5.4 mM HEPES (pH 7.5), 11.7 mM KCl, 4.5 mM MgCl2, 0.36 mg/ml BSA, and 90 nM ^3H-dTTP. Assays are run with and without CHAPS, (3-[(3-cholamidopropyl)-dimethylammonio]-1-propane-sulfonate) at a final concentration of 2 mM. HCMV polymerase is diluted in enzyme dilution buffer containing 50% glycerol, 250 mM NaCl, 10 mM HEPES (pH 7.5), 100 μg/ml BSA, and 0.01% sodium azide. The HCMV polymerase, which is expressed in recombinant baculovirus-infected SF-9 cells and purified according to literature procedures, is added at 10% (or 10 μl) of the final reaction volume, i.e., 100 μl. Compounds are diluted in 50% DMSO and 10 μl are added to each well. Control wells contain an equivalent concentration of DMSO. Unless noted otherwise, reactions are initiated via the addition of 6 nM biotinylated poly(dA)-oligo(dT) template/primer to reaction mixtures containing the enzyme, substrate, and compounds of interest. Plates are incubated in a 25° C. or 37° C. H2O bath and terminated via the addition of 40 μl/reaction of 0.5 M EDTA (pH 8) per well. Reactions are terminated within the time-frame during which substrate incorporation is linear and varied depending upon the enzyme and conditions used, i.e., 30 min. for HCMV polymerase. Ten μl of streptavidin-SPA beads (20 mg/ml in PBS/10% glycerol) are added following termination of the reaction. Plates are incubated 10 min. at 37° C., then equilibrated to room temperature, and counted on a Packard Topcount. Linear regressions are performed and IC50's are calculated using computer software.
A modified version of the above HCMV polymerase assay is performed as described above, but with the following changes: Compounds are diluted in 100% DMSO until final dilution into assay buffer. In the previous assay, compounds are diluted in 50% DMSO. 4.5 mM dithiotherotol (DTT) is added to the polymerase buffer. […] All results are listed as the percent inhibition of the viral polymerase at a concentration of 20 μM. In Table 1, the term “nd” refers to activity data not determined.

HSV polymerase = HSV polymerase (Human herpesvirus 1, UniProt P04293); experiment: HSV polymerase assay (Table 1, viral polymerase inhibition); assay type: biochemical; conditions: at a concentration of 20 μM; read-out: percent inhibition of the viral polymerase, HSV
VZV polymerase = VZV polymerase (Varicella-zoster virus, UniProt P09252); experiment: VZV polymerase assay (Table 1, viral polymerase inhibition); assay type: biochemical; conditions: at a concentration of 20 μM; read-out: percent inhibition of the viral polymerase, VZV
Protocol: The HCMV polymerase assay is performed using a scintillation proximity assay (SPA) as described in several references, such as N. D. Cook, et al., Pharmaceutical Manufacturing International, pages 49-53 (1992); K. Takeuchi, Laboratory Practice, September issue (1992); U.S. Pat. No. 4,568,649 (1986); which are incorporated by reference herein. Reactions are performed in 96-well plates. The assay is conducted in 100 μl volume with 5.4 mM HEPES (pH 7.5), 11.7 mM KCl, 4.5 mM MgCl2, 0.36 mg/ml BSA, and 90 nM ^3H-dTTP. Assays are run with and without CHAPS, (3-[(3-cholamidopropyl)-dimethylammonio]-1-propane-sulfonate) at a final concentration of 2 mM. HCMV polymerase is diluted in enzyme dilution buffer containing 50% glycerol, 250 mM NaCl, 10 mM HEPES (pH 7.5), 100 μg/ml BSA, and 0.01% sodium azide. […] Plates are incubated 10 min. at 37° C., then equilibrated to room temperature, and counted on a Packard Topcount. Linear regressions are performed and IC50's are calculated using computer software.
A modified version of the above HCMV polymerase assay is performed as described above, but with the following changes: Compounds are diluted in 100% DMSO until final dilution into assay buffer. […] In Table 1, the term “nd” refers to activity data not determined.

T1 sequence (P08546 whole entry): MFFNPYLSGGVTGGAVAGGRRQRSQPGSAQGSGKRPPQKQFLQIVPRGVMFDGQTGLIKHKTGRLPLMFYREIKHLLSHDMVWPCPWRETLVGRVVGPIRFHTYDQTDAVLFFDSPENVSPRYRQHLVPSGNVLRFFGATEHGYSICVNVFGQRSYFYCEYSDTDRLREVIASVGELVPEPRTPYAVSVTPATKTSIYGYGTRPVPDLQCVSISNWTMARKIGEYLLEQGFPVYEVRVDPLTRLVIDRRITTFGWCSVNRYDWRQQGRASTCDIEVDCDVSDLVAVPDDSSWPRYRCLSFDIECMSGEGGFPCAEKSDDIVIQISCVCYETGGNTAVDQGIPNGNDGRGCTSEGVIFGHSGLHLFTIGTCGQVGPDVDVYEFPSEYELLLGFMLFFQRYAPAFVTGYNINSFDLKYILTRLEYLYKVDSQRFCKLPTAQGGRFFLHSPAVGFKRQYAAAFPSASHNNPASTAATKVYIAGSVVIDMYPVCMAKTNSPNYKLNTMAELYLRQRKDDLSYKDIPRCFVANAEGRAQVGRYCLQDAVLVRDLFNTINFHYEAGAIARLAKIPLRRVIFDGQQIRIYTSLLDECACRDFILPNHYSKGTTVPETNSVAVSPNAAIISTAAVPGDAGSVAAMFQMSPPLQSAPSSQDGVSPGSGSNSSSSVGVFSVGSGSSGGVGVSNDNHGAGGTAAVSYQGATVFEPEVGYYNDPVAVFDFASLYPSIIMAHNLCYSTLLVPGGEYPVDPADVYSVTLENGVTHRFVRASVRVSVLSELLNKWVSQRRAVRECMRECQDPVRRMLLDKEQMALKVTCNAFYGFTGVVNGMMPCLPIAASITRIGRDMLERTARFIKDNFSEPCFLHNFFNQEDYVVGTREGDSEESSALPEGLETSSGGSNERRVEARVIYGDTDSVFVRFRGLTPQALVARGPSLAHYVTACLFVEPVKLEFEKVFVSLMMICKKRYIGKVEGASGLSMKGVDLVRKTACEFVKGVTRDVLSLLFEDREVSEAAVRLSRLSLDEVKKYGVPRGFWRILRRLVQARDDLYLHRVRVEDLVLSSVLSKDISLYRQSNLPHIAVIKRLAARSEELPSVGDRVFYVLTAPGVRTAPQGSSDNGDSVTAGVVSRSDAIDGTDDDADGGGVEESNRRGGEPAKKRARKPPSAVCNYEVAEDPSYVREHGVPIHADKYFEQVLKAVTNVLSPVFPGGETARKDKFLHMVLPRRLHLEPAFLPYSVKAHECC
HSV polymerase, sequence (P04293 whole entry): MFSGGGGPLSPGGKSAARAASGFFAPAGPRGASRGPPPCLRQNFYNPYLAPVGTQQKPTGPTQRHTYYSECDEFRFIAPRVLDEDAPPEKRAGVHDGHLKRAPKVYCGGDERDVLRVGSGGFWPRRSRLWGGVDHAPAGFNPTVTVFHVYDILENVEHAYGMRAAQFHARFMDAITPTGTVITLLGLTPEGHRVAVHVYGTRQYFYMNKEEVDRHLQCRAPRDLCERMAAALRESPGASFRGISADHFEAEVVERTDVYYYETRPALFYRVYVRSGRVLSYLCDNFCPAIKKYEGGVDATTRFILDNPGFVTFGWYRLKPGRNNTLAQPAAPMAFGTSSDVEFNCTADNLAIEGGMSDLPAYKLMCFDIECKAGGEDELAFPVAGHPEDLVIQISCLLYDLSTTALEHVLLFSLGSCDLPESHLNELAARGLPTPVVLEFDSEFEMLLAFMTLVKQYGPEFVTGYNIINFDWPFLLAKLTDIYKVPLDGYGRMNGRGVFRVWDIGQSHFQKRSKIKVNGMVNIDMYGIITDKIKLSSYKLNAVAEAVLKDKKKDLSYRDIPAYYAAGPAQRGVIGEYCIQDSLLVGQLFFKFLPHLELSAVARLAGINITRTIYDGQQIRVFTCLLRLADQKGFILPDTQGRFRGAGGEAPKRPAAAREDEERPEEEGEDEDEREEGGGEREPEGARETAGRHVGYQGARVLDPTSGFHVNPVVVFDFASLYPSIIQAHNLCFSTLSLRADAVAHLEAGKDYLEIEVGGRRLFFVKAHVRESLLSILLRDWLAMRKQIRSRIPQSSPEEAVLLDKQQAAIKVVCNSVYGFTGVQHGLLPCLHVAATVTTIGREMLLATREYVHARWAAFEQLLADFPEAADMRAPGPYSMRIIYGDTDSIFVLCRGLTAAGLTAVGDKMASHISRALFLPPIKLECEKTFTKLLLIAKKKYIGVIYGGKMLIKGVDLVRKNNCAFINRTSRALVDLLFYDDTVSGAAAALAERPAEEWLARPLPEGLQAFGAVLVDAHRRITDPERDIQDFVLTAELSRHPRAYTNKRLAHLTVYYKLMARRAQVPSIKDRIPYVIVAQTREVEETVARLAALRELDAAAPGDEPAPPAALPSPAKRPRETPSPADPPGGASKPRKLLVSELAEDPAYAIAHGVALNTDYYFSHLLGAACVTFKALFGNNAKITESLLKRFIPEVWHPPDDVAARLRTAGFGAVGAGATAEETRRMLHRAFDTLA
VZV polymerase, sequence (P09252 whole entry): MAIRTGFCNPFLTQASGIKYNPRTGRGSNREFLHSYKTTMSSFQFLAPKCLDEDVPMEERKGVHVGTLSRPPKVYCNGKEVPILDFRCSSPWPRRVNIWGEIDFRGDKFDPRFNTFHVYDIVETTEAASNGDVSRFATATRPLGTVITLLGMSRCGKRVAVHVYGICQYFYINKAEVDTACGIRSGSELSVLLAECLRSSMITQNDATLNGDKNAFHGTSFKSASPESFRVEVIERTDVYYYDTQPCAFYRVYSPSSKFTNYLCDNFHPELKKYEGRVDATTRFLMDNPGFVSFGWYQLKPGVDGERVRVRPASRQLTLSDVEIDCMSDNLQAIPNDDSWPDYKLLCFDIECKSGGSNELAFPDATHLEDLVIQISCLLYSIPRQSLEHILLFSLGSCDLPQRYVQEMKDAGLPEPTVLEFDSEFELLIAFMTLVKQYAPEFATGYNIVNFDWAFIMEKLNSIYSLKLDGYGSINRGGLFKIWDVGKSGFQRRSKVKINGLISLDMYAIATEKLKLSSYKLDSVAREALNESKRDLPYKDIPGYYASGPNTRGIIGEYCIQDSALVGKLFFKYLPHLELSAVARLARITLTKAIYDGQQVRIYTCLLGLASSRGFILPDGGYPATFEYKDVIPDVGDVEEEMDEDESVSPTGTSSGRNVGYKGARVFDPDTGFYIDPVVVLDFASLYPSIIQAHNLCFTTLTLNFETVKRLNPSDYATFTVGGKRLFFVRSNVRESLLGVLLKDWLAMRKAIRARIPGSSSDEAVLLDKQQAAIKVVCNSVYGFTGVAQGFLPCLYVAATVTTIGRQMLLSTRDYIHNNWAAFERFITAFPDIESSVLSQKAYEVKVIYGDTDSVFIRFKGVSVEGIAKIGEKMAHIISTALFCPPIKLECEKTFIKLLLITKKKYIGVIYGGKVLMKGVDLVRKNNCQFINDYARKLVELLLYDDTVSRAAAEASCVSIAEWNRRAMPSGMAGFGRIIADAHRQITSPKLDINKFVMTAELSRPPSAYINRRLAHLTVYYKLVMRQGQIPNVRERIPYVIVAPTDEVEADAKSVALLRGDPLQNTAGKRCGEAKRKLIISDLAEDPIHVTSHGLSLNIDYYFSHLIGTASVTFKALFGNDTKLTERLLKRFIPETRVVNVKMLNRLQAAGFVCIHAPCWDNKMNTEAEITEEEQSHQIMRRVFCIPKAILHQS

Structure (SMILES) | melting point | inhibition at 20 µM (HCMV polymerase) [%] | inhibition at 20 µM (HSV polymerase) [%] | inhibition at 20 µM (VZV polymerase) [%]
COC(=O)c1ccc2nnc(C(=O)NCc3ccc(Cl)cc3)c(O)c2c1 [Example 3, Methyl 3-{[(4-chlorobenzyl)amino]carbonyl]-4-hydroxy-6-cinnolinecarboxylate] | 308 to 310 °C | 50 |  | 
O=C(NCc1ccc(Cl)cc1)c1nnc2ccc(I)cc2c1O [Comp. 2, N-(4-chlorobenzyl)-4-hydroxy-6-iodo-3-cinnolinecarboxamide] | 307 to 308 °C | > 100 |  | 
O=C(NCc1ccc(Cl)cc1)c1n[nH]c2ccccc2c1=O [Comp. 1, N-(4-chlorobenzyl)-4-oxo-1,4-dihydro-3-cinnolinecarboxamide] | 269 to 271 °C | 90 | 20.8 | 10.1
O=C(NCc1ccc(Cl)cc1)c1nnc2ccc(CO)cc2c1O [Example 4, N-(4-chlorobenzyl)-4-hydroxy-6-(hydroxymethyl)-3-cinnolinecarboxamide] | 296 to 298 °C | 51 |  | 
O=C(NCc1ccc(Cl)cc1)c1nnc2ccc(CN3CCOCC3)cc2c1O [Example 5, N-(4-chlorobenzyl)-4-hydroxy-6-(morpholinylmethyl)-3-cinnolinecarboxylate] | 277 to 280 °C (dec.) |  |  | 
